From the NIST ThermoML archive (doi:10.1016/j.tca.2012.09.009)

Experiment: osmotic coefficient (dimensionless); mn = molality of the nth substance listed, in mol/kg
Conditions: 323.15 K, 101 kPa, Liquid, isopiestic method

CCCC[n+]1cccc(C)c1.O=S(=O)([N-]S(=O)(=O)C(F)(F)F)C(F)(F)F + CC(C)O
Conditions | osmotic coefficient
m1 = 0.0504 | 0.909
m1 = 0.0795 | 0.805
m1 = 0.0981 | 0.729
m1 = 0.2086 | 0.596
m1 = 0.2979 | 0.536
m1 = 0.3949 | 0.498
m1 = 0.4981 | 0.454
m1 = 0.7859 | 0.384
m1 = 1.188 | 0.321
m1 = 1.583 | 0.266
m1 = 1.975 | 0.244
m1 = 2.381 | 0.233
m1 = 2.763 | 0.234
m1 = 3.323 | 0.225

CCC[n+]1cccc(C)c1.O=S(=O)([N-]S(=O)(=O)C(F)(F)F)C(F)(F)F + CC(C)O
Conditions | osmotic coefficient
m1 = 0.0497 | 0.974
m1 = 0.0805 | 0.806
m1 = 0.1081 | 0.756
m1 = 0.1987 | 0.632
m1 = 0.2986 | 0.508
m1 = 0.41 | 0.415
m1 = 0.5278 | 0.379
m1 = 0.8355 | 0.334
m1 = 1.221 | 0.281
m1 = 1.623 | 0.24
m1 = 2.072 | 0.217
m1 = 2.437 | 0.206
m1 = 2.828 | 0.191
m1 = 3.326 | 0.184

CC[n+]1cccc(C)c1.O=S(=O)([N-]S(=O)(=O)C(F)(F)F)C(F)(F)F + CCCO
Conditions | osmotic coefficient
m1 = 0.0291 | 0.924
m1 = 0.0485 | 0.788
m1 = 0.0836 | 0.704
m1 = 0.104 | 0.68
m1 = 0.2111 | 0.57
m1 = 0.3124 | 0.496
m1 = 0.4076 | 0.411
m1 = 0.5148 | 0.354
m1 = 0.8269 | 0.297
m1 = 1.23 | 0.237
m1 = 1.577 | 0.211
m1 = 2.059 | 0.18
m1 = 2.455 | 0.161
m1 = 2.8 | 0.15

CCCC[n+]1cccc(C)c1.O=S(=O)([N-]S(=O)(=O)C(F)(F)F)C(F)(F)F + CCCCO
Conditions | osmotic coefficient
m1 = 0.0539 | 0.692
m1 = 0.082 | 0.581
m1 = 0.1023 | 0.508
m1 = 0.1892 | 0.403
m1 = 0.3045 | 0.305
m1 = 0.4112 | 0.259
m1 = 0.5115 | 0.238
m1 = 0.8265 | 0.203
m1 = 1.232 | 0.179
m1 = 1.58 | 0.155
m1 = 2.087 | 0.132
m1 = 2.466 | 0.12
m1 = 2.878 | 0.112
m1 = 3.434 | 0.102

CCCC[n+]1cccc(C)c1.O=S(=O)([N-]S(=O)(=O)C(F)(F)F)C(F)(F)F + CCC(C)O
Conditions | osmotic coefficient
m1 = 0.0527 | 0.735
m1 = 0.0838 | 0.623
m1 = 0.1035 | 0.581
m1 = 0.2136 | 0.45
m1 = 0.3113 | 0.379
m1 = 0.411 | 0.337
m1 = 0.5068 | 0.292
m1 = 0.7963 | 0.235
m1 = 1.217 | 0.195
m1 = 1.576 | 0.171
m1 = 2.032 | 0.149
m1 = 2.408 | 0.135
m1 = 2.799 | 0.126
m1 = 3.261 | 0.119

CCC[n+]1cccc(C)c1.O=S(=O)([N-]S(=O)(=O)C(F)(F)F)C(F)(F)F + CCCO
Conditions | osmotic coefficient
m1 = 0.0279 | 0.943
m1 = 0.0456 | 0.826
m1 = 0.0782 | 0.699
m1 = 0.0966 | 0.651
m1 = 0.2052 | 0.553
m1 = 0.2936 | 0.504
m1 = 0.3902 | 0.435
m1 = 0.5073 | 0.363
m1 = 0.8376 | 0.294
m1 = 1.261 | 0.242
m1 = 1.656 | 0.217
m1 = 2.045 | 0.196
m1 = 2.425 | 0.175
m1 = 2.825 | 0.165
m1 = 3.31 | 0.159

CCCC[n+]1cccc(C)c1.O=S(=O)([N-]S(=O)(=O)C(F)(F)F)C(F)(F)F + CCCO
Conditions | osmotic coefficient
m1 = 0.0318 | 0.917
m1 = 0.0485 | 0.78
m1 = 0.0788 | 0.72
m1 = 0.2157 | 0.571
m1 = 0.3181 | 0.487
m1 = 0.417 | 0.44
m1 = 0.527 | 0.389
m1 = 0.8342 | 0.324
m1 = 1.24 | 0.274
m1 = 1.63 | 0.229
m1 = 2.053 | 0.203
m1 = 2.439 | 0.191
m1 = 2.768 | 0.182
m1 = 3.304 | 0.174

CC[n+]1cccc(C)c1.O=S(=O)([N-]S(=O)(=O)C(F)(F)F)C(F)(F)F + CC(C)O
Conditions | osmotic coefficient
m1 = 0.049 | 0.951
m1 = 0.0748 | 0.834
m1 = 0.0982 | 0.752
m1 = 0.2129 | 0.605
m1 = 0.3058 | 0.529
m1 = 0.404 | 0.464
m1 = 0.5051 | 0.428
m1 = 0.8164 | 0.335
m1 = 1.211 | 0.274
m1 = 1.625 | 0.233
m1 = 2.011 | 0.21
m1 = 2.415 | 0.19
m1 = 2.847 | 0.176
m1 = 3.335 | 0.174
